Experimental data taken from patent publication US20130310374A1, “Substituted Imidazoquinoline Derivatives” (PIRAMAL ENTERPRISES LIMITED`, priority 2010, published 2013).

How the values were obtained:
[1] = tested on: human PANC-1 xenograft tumors; test: Pancreatic cancer xenograft model (tumor growth inhibition in vivo); set-up: species or system mouse; conditions: SCID mice, 3 mpk once daily p.o., 14 days; FIG. 3B
Description: Animals: Severe combined immunodeficient (SCID) mice (Male and Female) 6 to 8 weeks old, were used. Animals were housed in suitable cages under specified pathogen-free conditions in rooms maintained at 23° C. and 50% humidity, with a 12-hour light/12-hour dark cycle. The mice were quarantined during the acclimatization period of at least a week.
Pancreatic Cancer xenograft model: The human pancreatic carcinoma cells, (PANC-1) (ATCC) were grown in Eagle's Minimum Essential Medium (SAFC, US) supplemented with 10% (v/v) fetal bovine serum. The cells were incubated at 37° C. in a humidified atmosphere containing 5% CO2. […]
Tumor-bearing mice were randomized in two groups when the mean tumor weight was ˜100 mg. […] Twice a week, each xenograft was measured in two dimensions (a=length; b=width) with a caliper. Tumor volume (V) was determined by the following equation:
Tumor volumes were converted into tumor weights assuming a tumor density of 1 mm^3=1 mg. Tumor growth inhibition (TGI) for each group was calculated according to the following formula: […]
Wherein, T and T0 are the mean tumor volumes on a specific experimental day and on day 1 of treatment, respectively, for the experimental groups. […] Animals in each group were observed every day for signs of health deterioration and animal weight was recorded daily. […]

[2] = molecular target: T1, ALK2 (ACVR1) (Homo sapiens, UniProt Q04771); test: ALK2 inhibition assay (TR-FRET); assay type: biochemical; conditions: 20 μM ATP, read-out: IC50 for ALK-2
T1 construct: recombinant human, catalytic domain of ALK1 (ACVRL1) or ALK2 (ACVR1) kinase GST fusion proteins; GST; purchased Invitrogen, USA
Description: (§1) Protocol for ALK1 and ALK2 Inhibition Assay
(§2) The in vitro kinase assays using recombinant human, catalytic domain of ALK1 (ACVRL1) or ALK2 (ACVR1) kinase GST fusion proteins (Invitrogen, USA) were conducted using a time-resolved fluorescence (TR-FRET) format. Kinase reactions were carried out in a 384-well plate format in a final volume of 20 μl. The standard enzyme reaction buffer consisted of 50 mM Tris HCL (pH: 7.4), 1 mM EGTA, 10 mM MgCl2, 2 mM DTT, 0.01% Tween-20, 20 nM of ALK1/ALK2 kinase enzyme (Invitrogen, USA), 50 nM of peptide substrate (DNA Topoisomerase 2 alpha (Thr 1342)U1 peptide, Perkin Elmer, USA) and 20 μM of ATP. Various concentrations of compound of Example 3a in DMSO (final concentration 2%), was added to give a final concentration of the compound ranging from 20 μM to 20 pM. [20 nM of enzyme and compound in various concentrations were pre incubated for 10 minutes at 23° C. followed by the addition of 50 nM of the peptide substrate]. Reaction was initiated with the addition of 20 μM of ATP. After incubation for 1 hour at 23° C., kinase reaction was stopped with the addition of 5 μl EDTA (final concentration of 10 mM in 20 μl). […] The IC50 values for compound of Example 3a were determined by a four-parameter sigmoidal curve fit (Sigma plot or Graph pad).

[3] = molecular target: T2, mTOR (Homo sapiens, UniProt P42345); test: mTOR inhibition assay (ProQinase); assay type: biochemical; conditions: tested at ProQinase, Germany; read-out: IC50, mTOR enzyme activity
T2 construct: ProQinase, Germany (contract testing)
Description: The compounds of the present invention were tested at ProQinase, Germany.

[4] = molecular target: T3, ALK1 (ACVRL1) (Homo sapiens, UniProt P37023); test: ALK1 inhibition assay (TR-FRET); assay type: biochemical; conditions: 20 μM ATP, read-out: IC50 for ALK-1
T3 construct: recombinant human, catalytic domain of ALK1 (ACVRL1) or ALK2 (ACVR1) kinase GST fusion proteins; GST; purchased Invitrogen, USA
Description: as §1, §2

T3 sequence (P37023 202-492 limits assumed): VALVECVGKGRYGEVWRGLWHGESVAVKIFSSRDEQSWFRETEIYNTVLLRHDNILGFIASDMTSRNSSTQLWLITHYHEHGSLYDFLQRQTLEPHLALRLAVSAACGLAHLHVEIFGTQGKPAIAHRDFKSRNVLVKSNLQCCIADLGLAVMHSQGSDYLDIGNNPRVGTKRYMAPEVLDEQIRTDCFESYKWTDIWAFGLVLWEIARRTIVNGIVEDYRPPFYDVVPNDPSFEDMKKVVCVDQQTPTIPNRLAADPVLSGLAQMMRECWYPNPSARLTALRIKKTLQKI
T1 sequence (Q04771 208-502 limits assumed): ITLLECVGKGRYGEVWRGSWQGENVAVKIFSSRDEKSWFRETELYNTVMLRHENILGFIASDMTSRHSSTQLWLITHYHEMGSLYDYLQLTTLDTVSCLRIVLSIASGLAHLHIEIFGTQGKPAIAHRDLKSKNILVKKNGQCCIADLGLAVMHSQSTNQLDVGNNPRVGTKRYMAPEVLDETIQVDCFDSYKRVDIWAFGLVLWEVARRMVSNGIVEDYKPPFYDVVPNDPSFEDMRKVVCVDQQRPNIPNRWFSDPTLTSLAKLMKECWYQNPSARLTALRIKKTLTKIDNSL

IC50 [2]: 47 nM
IC50 [3]: 4.4 nM
IC50 [4]: 42 nM
SMILES: CS(=O)(=O)O.Cn1c(=O)n(-c2ccc(C(C)(C)C#N)nc2)c2c3cc(-c4cnc(N)c(C(F)(F)F)c4)ccc3ncc21 [Example 3a, 8-(6-Amino-5-(trifluoromethyl)pyridin-3-yl)-1-(6-(2-cyanopropan-2-yl)pyridin-3-yl)-3-methyl-2-oxo-2,3-dihydro-1H-imidazo[4,5-c]quinolin-5-ium methanesulfonate]
Growth of pancreatic tumors, PANC-1 xenograft [1]: effectively inhibited the growth of pancreatic tumors
